The record followed here is patent US11136320B2, “Fused ring derivative used as FGFR4 inhibitor” (JACOBIO PHARMACEUTICALS CO., LTD., priority 2019, dated 2021).

In one experiment the test system is Hep3B. In words: Pharmacodynamic in vivo, Hep3B model tumor growth inhibition. The arrangement: species or system NOD-SCID mice. The text has this:
The Hep3B cell line was purchased from ATCC; MEM cell culture medium, fetal bovine serum, and trypsin were purchased from Gibco; cell culture flasks were purchased from Greiner; and disposable Cell Counting Plate and taittinger Blue Solution Purchased from Bio-Rad. The disposable sterile syringe was purchased from Changzhou Jinlong Medical Plastic Instrument Co., Ltd, eye surgical scissors and eye surgical forceps were purchased from Shanghai Medical Instrument (Group) Co., Ltd. Surgical Instrument Factory, and 6-8 week old female NOD-SCID mice were purchased from Vitalivar.
a. One strain of Hep3B cells was taken out from the cell bank and MEM medium (MEM+10% FBS+1% PS) was used to recover the cells. The resuscitated cells were placed in a cell culture flask (the wall the flask was marked with the cell type, date, cultivator's name), and the cell culture flask was placed in a CO2 incubator (the temperature of the incubator was 37° C. and the CO2 concentration of the incubator was 5%);
b. When the cells covered about 90% of the bottom of the culture flask, passage was conducted. the cells were continued to cultivate in a CO2 incubator after passage. The above process was repeated until the number of the cell satisfied the requirements of pharmacodynamic in vivo;
c. The cultured cells were collected and counted using a BIO-Rad TC20 cell counter. According to the counting results, the cultured cells were resuspended with PBS and matrix gel (1:1) to obtain a cell suspension (density 5×10^7/ml), and the cell suspension was placed in an ice box for later use.
a. The cells were mixed well before seeding, and 0.5 ml of cell suspension was taken with a 1 ml syringe and bubbles in the cell suspension were removed. The syringe with the cell suspension was place on an ice pack for later use.
b. The NOD-SCID mice were set with the left hand, and the skin on the right back of the mice was disinfected with 75% alcohol. The inoculation was beginning after 30 seconds.
c. During inoculation, 1 mL syringe was on the right hand, and the cell suspension of Hep3B was inoculated subcutaneously into the right shoulder of the right back of the mouse at 0.1 mL/mouse. At inoculation interval, the syringe was placed on an ice pack and the mice were inoculated sequentially.
d. According to the tumor growth, the tumor was measured and the tumor size was calculated on the 12-15 days after inoculation.
Tumor volume calculation: tumor volume (mm^3)=length (mm)×width (mm)×width (mm)/2
e. When the tumors grew to an average volume of 100-150 mm^3, the mice were randomly divided into two groups according to tumor size and the weight of the mouse. […]
f. […] Tumors were measured and the mice were weighed twice a week after administration. […]

For another experiment, the target named is FGFR4 kinase (Homo sapiens (Human), UniProt P22455).
Sequence of FGFR4 kinase (P22455 22-802): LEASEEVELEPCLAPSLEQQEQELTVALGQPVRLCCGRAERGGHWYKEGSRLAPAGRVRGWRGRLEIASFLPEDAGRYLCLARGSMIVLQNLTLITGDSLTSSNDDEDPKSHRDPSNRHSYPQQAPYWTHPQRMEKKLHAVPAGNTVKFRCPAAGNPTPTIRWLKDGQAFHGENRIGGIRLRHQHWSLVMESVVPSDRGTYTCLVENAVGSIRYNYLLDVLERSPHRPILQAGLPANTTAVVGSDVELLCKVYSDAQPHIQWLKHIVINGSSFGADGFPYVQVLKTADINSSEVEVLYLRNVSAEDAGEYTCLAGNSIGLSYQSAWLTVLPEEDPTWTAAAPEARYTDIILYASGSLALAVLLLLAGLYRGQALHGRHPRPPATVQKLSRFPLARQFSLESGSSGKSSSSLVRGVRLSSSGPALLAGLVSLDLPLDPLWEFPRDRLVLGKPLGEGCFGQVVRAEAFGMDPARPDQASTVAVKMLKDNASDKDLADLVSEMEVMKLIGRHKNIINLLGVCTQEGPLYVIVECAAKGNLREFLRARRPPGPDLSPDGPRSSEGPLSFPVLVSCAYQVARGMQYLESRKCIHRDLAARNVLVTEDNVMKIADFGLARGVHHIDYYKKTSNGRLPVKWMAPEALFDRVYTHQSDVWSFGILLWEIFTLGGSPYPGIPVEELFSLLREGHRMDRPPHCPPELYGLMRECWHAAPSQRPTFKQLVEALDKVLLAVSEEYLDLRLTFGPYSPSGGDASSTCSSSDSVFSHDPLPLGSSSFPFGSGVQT

In the case of `CSC[C@@H](C)Nc1cc(NC(=O)N2CCCc3cc(CN4CCN(C)CC4=O)c(C=O)nc32)ncc1C#N` [Compound 4, (R)—N-(5-Cyano-4-((1-(methylthio)propan-2-yl)amino)pyridin-2-yl)-7-formyl-6-((4-methyl-2-oxopiperazin-1-yl)methyl)-3,4-dihydro-1,8-naphthyridine-1 (2H)-carboxamide], in the experiment with Hep3B, the antitumor effect entry is recorded as “excellent antitumor effect” and the “effect of 15 mg/kg BID compared with 60 mg/kg QD of the reference compound” value is given as “equivalent”. Also, in the experiment on Hep3B (15 mg/kg BID, gavage), the TGI % is 96.7%. The “inhibitory effect on FGFR4 compared with the reference compound” value at FGFR4 kinase is recorded as “better inhibitory effect on FGFR4 than the reference compound”.
